Measurements taken from patent publication US20250332293A1, “METHOD FOR MANUFACTURING BIOCOMPATIBLE NANOPARTICLES WITH A PEPTIDE CORE EXHIBITING SECOND- AND THIRD-HARMONIC SIGNAL GENERATION” (MAX-PLANCK-GESELLSCHAFT ZUR FÖRDERUNG DER WISSENSCHAFTEN E. …, priority 2016, published 2025).
Residues, ends and D or L forms follow the SMILES beside them.

Assays:
proteinase K = proteinase K (Parengyodontium album, UniProt P06873); assay: Digestion of self-assembled structures by proteinase K, SHG image time series; assay type: in vitro ADME; settings: no polymer shell, aqueous solution with proteinase K, 0 to 60 minutes
Sequence of proteinase K (P06873 106-384): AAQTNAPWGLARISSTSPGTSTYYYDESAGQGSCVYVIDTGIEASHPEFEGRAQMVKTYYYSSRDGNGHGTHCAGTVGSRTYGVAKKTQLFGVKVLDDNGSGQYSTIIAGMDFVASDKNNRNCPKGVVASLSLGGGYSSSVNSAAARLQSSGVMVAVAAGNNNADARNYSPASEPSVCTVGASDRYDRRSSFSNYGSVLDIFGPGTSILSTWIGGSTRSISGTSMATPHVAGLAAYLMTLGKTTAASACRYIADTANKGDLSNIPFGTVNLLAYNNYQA
Experimental: The digestion 201 is facilitated by a proteinase K.
The proteinase K digests the self-assembled structure into single phenylalanines.
In FIG. 6 the corresponding SHG images of a digestion 201 of self-assembled structures of triphenylalanines 41 suspended in aqueous solution with proteinase K is shown. Here, image A) has been taken at time 0 minutes, image B) at 20 minutes, C) at 40 minutes and image D) after 60 minutes after adding proteinase K to the solution.

[1] = Stability of SHG signal with regard to dilution; assay type: physicochemical; settings: 10 mg/ml (versus 100 mg/ml)
Experimental: Panel A: LIVAGK peptides' SHG signal at a concentration of 100 mg/ml. Panel B: LIVAGK peptides' SHG signal at a concentration of 10 mg/ml.

[2] = Stability of SHG signal with regard to pH of the solvent; assay type: physicochemical
Experimental: The disassembly occurs within minutes (˜5 minutes) after incubation in pH 4.
Panel A: SHG signal after incubation of the nanoparticles for 72 hours in a buffer at pH 7. Same as in panel A, but at pH 6. Same as in panel A, but at pH 5. Panel D: same as in panel A, but at pH 4.
In FIG. 16a, the effect of different pH values on the SHG signal intensity are shown as a diagram. The nanoparticles were incubated at different pH values for 72 hours (n=5). Representative images showing SHG signal intensity after the nanoparticles were incubated in buffers at FIG. 16b, pH 7, FIG. 16c, pH 6, FIG. 16d, pH 5, and FIG. 16e, pH 4. Scalebar, 10 μm. Mean±s.d. n.s., not significant (Ordinary one-way ANOVA with Tukey's multiple comparisons).

Compound | SHG signal during proteinase K digestion (proteinase K) | SHG signal on dilution [1] | assembly state / SHG signal at pH 4 ([2]; pH 4, 100 mg/ml) | time to disassembly after incubation in pH 4 ([2]; pH 4, 100 mg/ml) [minutes] | assembly state / SHG signal at pH 7 ([2]; pH 7, 100 mg/ml)
N[C@@H](Cc1ccccc1)C(=O)N[C@@H](Cc1ccccc1)C(=O)N[C@@H](Cc1ccccc1)C(=O)O [triphenylalanine, Phe-Phe-Phe] (H-Phe-Phe-Phe-OH; N-terminus and C-terminus assumed) | decreasing over the course of time |  |  |  | 
LIVAGK |  | no SHG signal can be observed | disassemble | ~5 | still assembled
